# ChEMBL document CHEMBL3132815, “Design, synthesis and activities of 4/5-acyl-2-aminoimidazolyl analogues of oroidin for biofilm inhibition” (Medchemcomm, 2013)
# pIC50: −log10 of the molar value.
# Legend:
# [1] = system: Staphylococcus epidermidis; test: Antibiofilm activity against Staphylococcus epidermidis 1457 assessed as inhibition of biofilm formation at 50 ug/ml; type: functional
# Staphylococcus aureus [2] = test: Antibacterial activity against methicillin-resistant Staphylococcus aureus 1094 assessed as planktonic growth at 50 ug/ml; type: organism-based
# Staphylococcus aureus [3] = test: Antibiofilm activity against Staphylococcus aureus ATCC 35556 assessed as inhibition of biofilm formation at 50 ug/ml; type: functional
# [4] = system: Staphylococcus epidermidis; test: Antibacterial activity against Staphylococcus epidermidis 1457 assessed as planktonic growth at 50 ug/ml; type: organism-based
# Staphylococcus aureus [5] = test: Antibacterial activity against Staphylococcus aureus ATCC 35556 assessed as planktonic growth at 50 ug/ml; type: organism-based
# Staphylococcus aureus [6] = test: Antibiofilm activity against methicillin-resistant Staphylococcus aureus 1094 assessed as inhibition of biofilm formation at 50 ug/ml; type: functional
# [7] = system: Staphylococcus epidermidis; test: Antibacterial activity against Staphylococcus epidermidis GTC 18972 assessed as planktonic growth at 50 ug/ml; type: organism-based
# [8] = system: Staphylococcus epidermidis; test: Antibiofilm activity against Staphylococcus epidermidis GTC 18972 assessed as inhibition of biofilm formation at 50 ug/ml; type: functional
# Staphylococcus aureus [9] = test: Antibacterial activity against methicillin-resistant Staphylococcus aureus assessed as planktonic growth at 50 ug/ml; type: organism-based; settings: in vitro
# Pseudomonas aeruginosa [10] = test: Antibiofilm activity against Pseudomonas aeruginosa PAO1 assessed as inhibition of biofilm formation at 50 ug/ml; type: functional
# Pseudomonas aeruginosa [11] = test: Antibacterial activity against Pseudomonas aeruginosa PAO1 assessed as planktonic growth at 50 ug/ml; type: organism-based
# Staphylococcus aureus [12] = test: Antibiofilm activity against methicillin-resistant Staphylococcus aureus assessed as inhibition of biofilm formation at 50 ug/ml; type: functional
# Pseudomonas aeruginosa [13] = test: Antibiofilm activity against Pseudomonas aeruginosa PAO1 assessed as inhibition of biofilm formation; type: functional, organism-based; settings: Pseudomonas aeruginosa, PAO1
Compound,inhibition at 50 µg/mL [1] [%],Activity (Staphylococcus aureus [2]) [%],inhibition at 50 µg/mL (Staphylococcus aureus [3]) [%],Activity [4] [%],Activity (Staphylococcus aureus [5]) [%],inhibition at 50 µg/mL (Staphylococcus aureus [6]) [%],Activity [7] [%],inhibition at 50 µg/mL [8] [%],Activity (Staphylococcus aureus [9]) [%],inhibition at 50 µg/mL (Pseudomonas aeruginosa [10]) [%],Activity (Pseudomonas aeruginosa [11]) [%],inhibition at 50 µg/mL (Staphylococcus aureus [12]) [%],pIC50 (Pseudomonas aeruginosa [13])
O=C(NC/C=C/c1cnc2ncccn12)c1cc(Br)c[nH]1,14,-8.7,-5.5,-24,8.6,36,-3.1,-1.8,-16.4,2.1,-19.9,-108,–
O=C(NC/C=C/c1cnc2ncccn12)c1ccc[nH]1,22.8,-0.8,16.4,-8.9,-11.5,47.8,0.1,45.9,5,-2.9,14.6,-61,–
Nc1nc(C(=O)CCNC(=O)c2cc(Br)c(Br)[nH]2)c[nH]1,17.8,21.91,-0.94,-13.68,-4.22,-66,9.62,33.8,1.56,4.13,6.46,28.3,4.22
O=C(CN1C(=O)c2ccccc2C1=O)c1cnc2ncccn12,6.4,21.51,-3.15,11.1,-6.07,-67.5,29.67,8.1,3.76,-7.64,-0.69,-97.9,–
O=C(CCN1C(=O)c2ccccc2C1=O)c1cnc2ncccn12,10.6,15.94,6.92,15.13,2.31,-53.2,23.58,-11,10.43,23,-16.12,18.7,–
O=C(NCC(=O)c1cnc2ncccn12)c1cc(Br)c(Br)[nH]1,6.17,18.43,-5.8,13.8,-4.3,-13.9,19.25,-2.59,7.17,20.8,-15.25,-119,–
O=C(NCC(=O)c1cnc2ncccn12)c1cc(Br)c[nH]1,7.83,16.74,-8.17,13.47,-3.86,7.07,19.25,-9.93,-6.08,27.4,-6.55,-124,–
O=C(NCC(=O)c1cnc2ncccn12)c1ccc[nH]1,7.6,20.67,-5.94,11.5,-4.75,2.15,17.02,-6.61,3.76,14.3,3.14,-119,–
O=C(NCCC(=O)c1cnc2ncccn12)c1cc(Br)c(Br)[nH]1,4.48,6.37,-4.41,9.93,-6.51,0.13,15.9,-9.35,-1.91,8.66,-13.02,-124,–
O=C(NCCC(=O)c1cnc2ncccn12)c1cc(Br)c[nH]1,2.71,5.81,-8.17,-2.26,4.97,22.5,1.02,-9.3,-6.08,17,-14.84,-127,–
O=C(NCCC(=O)c1cnc2ncccn12)c1ccc[nH]1,1.26,10.52,-1.6,-3.27,6.67,-25.1,11.45,-16.7,0.95,13.2,-15.89,16.9,–
O=C(NCC(O)c1cnc2ncccn12)c1cc(Br)c(Br)[nH]1 (stereo unspecified),4.48,6.37,-4.41,9.93,-6.51,0.13,15.9,-9.35,-1.91,8.66,-13.02,-124,–
O=C(NCC(O)c1cnc2ncccn12)c1cc(Br)c[nH]1 (stereo unspecified),2.71,5.81,-8.17,-2.26,4.97,22.5,1.02,-9.3,-6.08,17,-14.84,-127,–
O=C(NCC(O)c1cnc2ncccn12)c1ccc[nH]1 (stereo unspecified),-1.26,10.52,-1.6,-3.27,6.67,-25.1,11.45,-16.8,0.95,13.2,-15.89,16.9,–
O=C(NCCC(O)c1cnc2ncccn12)c1cc(Br)c(Br)[nH]1 (stereo unspecified),19.6,-0.8,-2.2,10.2,2.9,26.2,14.8,-33.1,-5.1,-1.4,14.1,-20.9,–
O=C(NCCC(O)c1cnc2ncccn12)c1cc(Br)c[nH]1 (stereo unspecified),2.6,17.3,2.2,2.9,4.7,34.3,6.5,-14.1,15.4,1.9,17.1,8,–
O=C(NCCC(O)c1cnc2ncccn12)c1ccc[nH]1 (stereo unspecified),9.6,-7.9,-6.5,0.7,3.3,26.8,1,18.1,6.1,3.9,-19.1,-5.1,–
O=C(NC/C=C/c1cnc2ncccn12)c1cc(Br)c(Br)[nH]1,18.3,-0.5,-0.4,7.8,3.3,38.9,9.1,-16.6,-6.1,-1.7,11.6,-9.7,–
Cl.Cl.NCCC(=O)c1cnc2ncccn12,33,-0.9,57.1,3.5,-3.3,-1.8,5.5,4.2,-12.6,-1.5,11.1,-10.6,–
Cl.Cl.NCC(=O)c1cnc2ncccn12,0.9,2,-5.1,-0.6,6.2,-30.2,6.4,28.7,7.8,5.6,28.8,4.3,–
